We go through 4 molecules from US6413937B1, “Combinations for use in increasing the potency of a substrate for multidrug resistance related protein” (Dublin City University and Enterprise Ireland, priority 1996, dated 2002).

Experiment [1] deals with DLKP cell line. The experiment is described as follows: miniaturised in vitro colorimetric cell survival assay (acid phosphatase end-point), DLKP. Type of experiment: cell-based, human. As for the experimental part: (§1) All the results presented in this Example for the DLKP, A549 and OAW42-SR cell lines were derived using the same miniaturised in vitro calorimetric assay system. On Day 1 of the assay 1000 cells/well/100 μl were plated into 96-well plates. Cells were allowed to attach overnight and cell viability was visually assessed. […] NSAID plus chemotherapeutic drug) to be analysed were added onto the cells. The individual drugs were added separately in 50 μl quantities (4× stocks, to take into account the dilution effect of having 200 μl final volume in each well). The drugs were left on the cells for five further days (Day 7) and cell number was determined using the acid phosphatase end-point assay which uses p-nitrophenol phosphate as substrate (Martin, A. and Clynes, M. (1991) In Vitro Dev. Biol., 27A, 183-184). On Day 7 the culture medium was removed from the cells and they were washed once with phosphate buffered saline (PBS). […] After the incubation period 50 μl of 1N NaOH was added to each well to develop the colour. The plates were then read at 405 nm (reference 620 nm) on an ELISA plate-reader. […] All results are the cell survival means ±S.D. from a minimum of three experiments.

For experiment [2], the system named is A549 cell line. The experiment can be described thus: miniaturised in vitro colorimetric cell survival assay (acid phosphatase end-point), A549. The settings on record: for % cell survival: alone or + Adriamycin 20 ng/ml. The class given is cell-based, human. On the procedure: as §1
The subject of experiment [3] is OAW42-SR cell line. The experiment is described as follows: miniaturised in vitro colorimetric cell survival assay, LRP overexpressing OAW42-SR. Type of experiment: cell-based, human. Conditions: vi) Adriamycin 147 ng/ml alone. On the procedure:
All the results presented in this Example for the DLKP, A549 and OAW42-SR cell lines were derived using the same miniaturised in vitro calorimetric assay system. On Day 1 of the assay 1000 cells/well/100 μl were plated into 96-well plates. Cells were allowed to attach overnight and cell viability was visually assessed. On Day 2 the two drugs (i.e. NSAID plus chemotherapeutic drug) to be analysed were added onto the cells. The individual drugs were added separately in 50 μl quantities (4× stocks, to take into account the dilution effect of having 200 μl final volume in each well). The drugs were left on the cells for five further days (Day 7) and cell number was determined using the acid phosphatase end-point assay which uses p-nitrophenol phosphate as substrate (Martin, A. and Clynes, M. (1991) In Vitro Dev. Biol., 27A, 183-184). On Day 7 the culture medium was removed from the cells and they were washed once with phosphate buffered saline (PBS). […] After the incubation period 50 μl of 1N NaOH was added to each well to develop the colour. The plates were then read at 405 nm (reference 620 nm) on an ELISA plate-reader. […] All results are the cell survival means ±S.D. from a minimum of three experiments.

Experiment [4] concerns SP2 mouse myeloma cells. The experiment is described as follows: mouse tumour model, survival of Balb/c mice injected with SP2 cells. Type of experiment: in vivo. The settings on record: groups of 8 Balb/c mice; i.p. once a day, five days a week; adriamycin 0.25 mg/kg, tolmetin 70 mg/kg; after 32 days. On the procedure: The in vivo relevance of our findings was studied using a mouse tumour model. SP2 tumour cells were injected into 4 groups of mice. Groups of 8 male Balb/c mice 8 weeks old were maintained on normal diets. Animals were injected with 2 million SP2 mouse myeloma cells on day 1. On day 3 intraperitoneal injection with adriamycin, tolmetin or a combination of the two was begun. This continued once a day, five days a week for a total of 32 days. The agents were dissolved in PBS and prepared freshly twice per week. The animals were weighed and the average weight of the group was used to calculate the required concentration of the drugs. Adriamycin was administered to give a final concentration of 0.25 mg/kg, the tolmetin dose was 70 mg/kg. […] The results were expressed as the number of animals alive each day as a percentage of the original number of animals alive.
Group 1 received injections of the vehicle (PBS) alone, group 2, adriamycin at 0.25 mg/kg, group 3, tolmetin at 70 mg/kg and group 4 received both agents (adriamycin, 0.25 mg/kg and tolmetin, 70 mg/kg). After 32 days there were clear differences in the % survival between the groups (FIG. 5). […] Two mice remained in the adriamycin group but 5 survived to the end of the experiment from the combination group (group 4).

The test system of experiment [5] is COR L23 R (MRP+) cells. The settings on record: doxorubicin 10 mg/ml alone or with sulindac 20 mg/ml, 1, 2, 4 h, FIG. 3.
Description: (§2) 10^6 COR L23 P (parental non-MRP resistant, MRP−) or COR L23 R (MRP resistant, MRP+) cells were added to 75 cm^3 vented flasks containing HEPES buffered Rosemount Park Memorial Institute (RPMI) medium and maintained at 37° C. in a 5% CO2 atmosphere. […] After three days of growth, doxorubicin (final concentration 10 mg/ml), sulindac (final concentration 20 mg/ml) or doxorubicin and sulindac were added to individual flasks. Samples were taken after 1, 2 and 4 h. and assayed for drug content.
(§3) The contents of each flask were washed twice with 5 ml of PBS and stored at −70° C. The flasks were thawed and 100 μl of water and 100 μl of 33% silver nitrate added to each and mixed for 5 min. […]
(§4) The extract was resuspended in 50 μl of methanol in the sample vial and loaded into the HPLC autosampler. […] The mobile phases were pumped through a C18 reversed-phase Ultrasphere XL (Beckman) HPLC column (4.6×70 mm) with absorbance measured at 253 nm. […] The amount of doxorubicin and sulindac present was quantified by measuring the peak height of these drugs and the internal standard. […] The concentration of doxorubicin in the samples was calculated from the) nd development standard line using the peak height ratio. The sulindac concentrations were calculated by the same method.
For experiment [6], the system named is COR L23 P (non-MRP) cells. Conditions: doxorubicin 10 mg/ml alone or with sulindac 20 mg/ml, 1, 2, 4 h, FIG. 4.
Description: as §2, §3, §4
For experiment [7], the target named is T1, MRP pump (Homo sapiens, UniProt P33527).
T1 construct: inside-out plasma membrane vesicles prepared from HL60ADR cells; endogenous in cells; host or cells: HL60ADR cells (plasma membrane vesicles)
T1 sequence (P33527 whole entry): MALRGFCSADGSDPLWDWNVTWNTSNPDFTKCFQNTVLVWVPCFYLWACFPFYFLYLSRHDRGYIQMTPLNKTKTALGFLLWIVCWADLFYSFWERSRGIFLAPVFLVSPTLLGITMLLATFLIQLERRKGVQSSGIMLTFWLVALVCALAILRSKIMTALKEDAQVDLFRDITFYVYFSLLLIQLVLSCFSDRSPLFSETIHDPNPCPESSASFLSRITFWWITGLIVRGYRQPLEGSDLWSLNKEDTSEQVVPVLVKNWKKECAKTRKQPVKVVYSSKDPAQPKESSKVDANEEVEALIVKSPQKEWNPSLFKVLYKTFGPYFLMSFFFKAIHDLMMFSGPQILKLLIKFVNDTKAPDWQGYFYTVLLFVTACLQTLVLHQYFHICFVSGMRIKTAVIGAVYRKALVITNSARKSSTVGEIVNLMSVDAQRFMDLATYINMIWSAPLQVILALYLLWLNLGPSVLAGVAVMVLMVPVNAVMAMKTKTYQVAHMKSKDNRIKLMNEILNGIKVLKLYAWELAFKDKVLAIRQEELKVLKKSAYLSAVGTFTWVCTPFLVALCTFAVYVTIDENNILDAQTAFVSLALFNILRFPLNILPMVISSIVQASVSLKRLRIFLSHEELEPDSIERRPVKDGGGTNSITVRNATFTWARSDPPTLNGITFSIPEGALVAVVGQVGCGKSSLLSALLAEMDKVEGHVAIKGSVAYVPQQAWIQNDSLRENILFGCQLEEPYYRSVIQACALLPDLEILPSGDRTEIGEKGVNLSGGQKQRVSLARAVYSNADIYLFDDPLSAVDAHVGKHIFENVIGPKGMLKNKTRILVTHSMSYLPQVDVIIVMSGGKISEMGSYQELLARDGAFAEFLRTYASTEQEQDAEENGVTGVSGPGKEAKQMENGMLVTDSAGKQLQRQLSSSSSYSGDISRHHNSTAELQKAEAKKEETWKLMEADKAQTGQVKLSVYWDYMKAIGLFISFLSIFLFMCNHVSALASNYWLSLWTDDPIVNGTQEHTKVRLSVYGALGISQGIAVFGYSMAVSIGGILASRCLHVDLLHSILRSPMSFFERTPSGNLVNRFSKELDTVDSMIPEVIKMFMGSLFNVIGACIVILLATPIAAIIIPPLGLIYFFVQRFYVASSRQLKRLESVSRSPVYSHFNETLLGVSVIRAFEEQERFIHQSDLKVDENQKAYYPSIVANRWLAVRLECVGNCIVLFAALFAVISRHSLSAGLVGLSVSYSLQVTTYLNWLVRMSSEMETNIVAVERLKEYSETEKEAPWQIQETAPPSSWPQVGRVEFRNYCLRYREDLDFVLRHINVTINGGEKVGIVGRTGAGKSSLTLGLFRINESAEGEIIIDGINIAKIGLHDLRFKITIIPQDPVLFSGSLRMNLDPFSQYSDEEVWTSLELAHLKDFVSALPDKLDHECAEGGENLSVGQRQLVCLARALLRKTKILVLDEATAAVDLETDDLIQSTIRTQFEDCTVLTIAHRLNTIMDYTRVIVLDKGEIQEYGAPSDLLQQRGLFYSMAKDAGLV
The experiment can be described thus: ATP-dependent transport of [3H]LTC4 into inside-out plasma membrane vesicles from HL60ADR cells. The class given is biochemical. As for the experimental part: To determine if the NSAIDs were acting directly on the MRP pump the uptake of [^3H]LTC4 into inside-out plasma membrane vesicles prepared from HL60ADR cells was examined using a rapid filtration procedure (Ishikawa,T., et al. (1994); J. Biol. Chem. 269 (46); 29085-29093). ATP-dependent transport of [^3H]LTC4 into the membrane vesicles was measured by a rapid filtration method using a Millipore sampling manifold. The membrane vesicles were thawed at 37° C. before use and kept on ice. The reaction components consisted of 0.25 M sucrose/10 mM Tris.HCl pH 7.4/1 mM ATP/10 mM MgCl2/10 mM creatine phosphate/ 110 μg/ml creatine kinase and 10 nM [^3H]LTC4, with 50 μg of the inside-out vesicle preparation, in a final volume of 110 μl. This suspension was incubated at 37° C., with gentle mixing, and aliquots, 20 μl, were taken at the indicated points. Those aliquots were diluted in 1 ml of ice-cold incubation buffer before being applied to 0.22 μm Millipore GSWP nitrocellulose filters, pre-soaked in ice-cold incubation buffer, under suction. The filters were subsequently washed with 3 ml ice-cold incubation buffer, and absorbed radioactivity was measured using a scintillation counter (Beckman). In control experiments ATP was replaced with 5μ-AMP to determine the ATP-dependent transport.

For experiment [8], the system named is GST prepared from DLKP cells. The experiment is described as follows: total GST assay with 1-chloro-2,4-dinitrobenzene. The settings on record: 0.4 mM. The class given is biochemical, human. As for the experimental part:
The other NSAIDs were tested in a total GST assay (Habig, W. H., and Jakoby, W. B., (1981); Methods Enzymol., 77: 218-231). Total cellular GST activity was assayed, using 1-chloro-2,4-dinitrobenzene as a substrate, according to the method of Habig, W. H., and Jakoby, W. B., (1981); supra. Due to spectrophotometric interference at 340 nm, caused by the majority of the NSAIDs, the assays were all performed at 360 nm, without any apparent effect on the rate of the control reaction The results are shown in Table 5.

Experiment [9] has as its system MRP-specific substrates. The experiment is described as follows: screen for enhancement of toxicity of MRP substrates by NSAIDs. Type of experiment: cell-based. The settings on record: summary statements.
Experiment [10] deals with HL-60ADR cells. The experiment can be described thus: etoposide-induced apoptosis (nuclear fragmentation), HL-60ADR. The settings on record: HL-60ADR (resistant); etoposide alone or co-treated with sulindac; FIG. 1. Type of experiment: cell-based. On the procedure: An experiment was carried out to determine the effect of the NSAID sulindac on etoposide-induced apoptosis in two cell lines, namely HL-60S and HL-60ADR. These cell lines were donated by Dr. Melvin Center, Kansas State University, Manhattan Kans. 66506, U.S.A. For the HL-60S and ADR cell lines the percentage of apoptotic cells within the cell population, following drug exposure, was used to quantify toxicity. Cells were plated in fresh medium at a concentration of 10^6 cells/ml in a 24-well plate (Greiner) and drugs were then added to the wells. A 200 μl sample from each well was taken after 4 and 8 hrs. Samples were cytospun for 2 min at 500 rpm using a Shandon Cytofuge3. After air-drying the cytospins were stained using a Romanowsky staining kit, Rappi-Diff II (Langanbach), dried and mounted in DPX (BDH). Slides were studied on an Optiphot microscope (Nikon) fitted with a 40× objective, and visualised on a monitor via a Mitsubishi CCD-100E colour CCD-camera and a 0.6× relay lens. Nuclear fragmentation was used as a morphological marker for apoptosis and a minimum of 200 cells were assessed in at least three different microscopic fields. Results were expressed as the percentage of apoptotic cells within the population. Each experiment was repeated in duplicate.

Experiment [11] relates to DLKP-A cell line. The experiment is described as follows: miniaturised in vitro colorimetric cell survival assay, P-170 overexpressing DLKP-A. The class given is cell-based, human. The settings on record: v) Vincristine 1.0 μg/ml alone. As for the experimental part:
All the results presented in this Example for the DLKP, A549 and OAW42-SR cell lines were derived using the same miniaturised in vitro calorimetric assay system. On Day 1 of the assay 1000 cells/well/100 μl were plated into 96-well plates. Cells were allowed to attach overnight and cell viability was visually assessed. On Day 2 the two drugs (i.e. NSAID plus chemotherapeutic drug) to be analysed were added onto the cells. The individual drugs were added separately in 50 μl quantities (4× stocks, to take into account the dilution effect of having 200 μl final volume in each well). The drugs were left on the cells for five further days (Day 7) and cell number was determined using the acid phosphatase end-point assay which uses p-nitrophenol phosphate as substrate (Martin, A. and Clynes, M. (1991) In Vitro Dev. Biol., 27A, 183-184). On Day 7 the culture medium was removed from the cells and they were washed once with phosphate buffered saline (PBS). After washing, 100 μl of freshly prepared substrate-containing buffer (0.1% Triton X-100 in 0.1M sodium acetate, pH 5.5) was added to each well and the plates were left in an incubator at 37° C. for 2 h. After the incubation period 50 μl of 1N NaOH was added to each well to develop the colour. The plates were then read at 405 nm (reference 620 nm) on an ELISA plate-reader.
In the results given below the % cell survival in the drug-free control is 100%. All results are the cell survival means ±S.D. from a minimum of three experiments.
v) is an example of a positive NSAID plus a positive drug on a P-170 overexpressing cell line: DLKP-A;

In the case of `COc1cccc2c1C(=O)c1c(O)c3c(c(O)c1C2=O)C[C@@](O)(C(=O)CO)C[C@@H]3O[C@H]1C[C@H](N)[C@H](O)[C@H](C)O1` [Adriamycin, adriamycin], the “% cell survival” value in experiment [1] (i) Adriamycin 10 ng/ml alone) was determined as 60.35 ± 3.2%; in [3] it was 47.41 ± 1.3%. The viability at 0.04 µg/mL in experiment [2] (Homo sapiens, A549, 120 h, ix) Adriamycin 40 ng/ml alone) was 54 ± 6.05%; in experiment [2] (Homo sapiens, A549, 120 h, xi) Adriamycin 40 ng/ml alone), 46 ± 5.05%. For the same molecule, the viability at 0.015 µg/mL stood at 61 ± 5.05% in experiment [2] (Homo sapiens, A549, 120 h, viii) Adriamycin 15 ng/ml alone); 47 ± 5.15% in experiment [2] (Homo sapiens, A549, 120 h, x) Adriamycin 15 ng/ml alone); 70.7 ± 4.25% in experiment [2] (Homo sapiens, A549, 120 h, xii) Adriamycin 15 ng/ml alone); 68 ± 5.82% in experiment [2] (Homo sapiens, A549, 120 h, xiii) Adriamycin 15 ng/ml alone); 89 ± 11.9% in [2] (Homo sapiens, A549, 120 h, xv) Adriamycin 15 ng/ml alone). In addition, the viability at 0.02 µg/mL in [2] (Homo sapiens, A549, 120 h, xiv) Adriamycin 20 ng/ml alone) came out at 78 ± 3.95%. The same molecule showed a viability at 0.017 µg/mL in [2] (Homo sapiens, A549, 120 h, xvi) Adriamycin 17 ng/ml alone) of 76.7 ± 5.4%. In addition, the “mice surviving to the end of the experiment” value in [4] is reported as “Two”. In addition, the “doxorubicin level in the cells” value is listed as “less doxorubicin is found in the cells” in experiment [5] and “high levels of doxorubicin are found in the cell” in experiment [6].
For `Cc1ccc(C(=O)c2ccc(CC(=O)O)n2C)cc1` [Tolmetin, tolmetin], the “% cell survival” value is recorded as 104.38 ± 6.8% in experiment [1] (i) Tolmetin 6.25 μg/ml, alone or + Adriamycin 10 ng/ml); 104.23 ± 6.2% in experiment [1] (i) Tolmetin 12.5 μg/ml, alone or + Adriamycin 10 ng/ml); 100.49 ± 7.3% in [1] (i) Tolmetin 25 μg/ml, alone or + Adriamycin 10 ng/ml); 91.84 ± 10.99% in experiment [2] (xiv) Tolmetin 8.50 μg/ml); 97.59 ± 9.85% in experiment [2] (xiv) Tolmetin 14.10 μg/ml); 99.24 ± 10.35% in experiment [2] (xiv) Tolmetin 24.20 μg/ml). In [7] (0.432 mM), the inhibition at 432 µM was 22%. The molecule also displayed an inhibition at 863 µM in experiment [7] (0.863 mM) of 50%. Further, the “% Inhibition of GST” value in [8] is 55%. The “mice surviving to the end of the experiment” value in experiment [4] was “all but one from group 3 were dead”. In [9], the “enhancement of toxicity of MRP substrates” value was “have been found to enhance the toxicity of MRP-specific substrates”.
As for `COc1cc([C@@H]2c3cc4c(cc3[C@@H](O[C@@H]3O[C@@H]5CO[C@@H](C)O[C@H]5[C@H](O)[C@H]3O)[C@H]3COC(=O)[C@H]23)OCO4)cc(OC)c1O` [VP-16, etoposide], the “% cell survival” value in [1] (iii) VP-16 100 ng/ml alone) is 63.46 ± 1.4%. The “etoposide-induced apoptosis, percentage of apoptotic cells” value in [10] is given as “only a basal level of apoptosis is seen”.
On to `CC[C@]1(O)C[C@H]2CN(CCc3c([nH]c4ccccc34)[C@@](C(=O)OC)(c3cc4c(cc3OC)N(C=O)[C@H]3[C@@](O)(C(=O)OC)[C@H](OC(C)=O)[C@]5(CC)C=CCN6CC[C@]43[C@@H]65)C2)C1` [Vincristine, vincristine], for which the “% cell survival” value turned out to be 72.98 ± 3.5% in experiment [1] (ii) Vincristine 1.0 ng/ml alone) and 89.12 ± 1.3% in [11].
